From PubChem BioAssay AID280 (DTP/NCI, 2004) come the findings set out here.

The test system of this assay is nude mice, LOX melanoma ip, survival T/C. Put plainly: NCI In Vivo Anticancer Drug Screen. Data for tumor model Human Amelanotic Melanoma (LOX) (intraperitoneal) in NU/NU BALB/C (nude) mice. To be noted: endpoint: median survival time, higher = longer survival. The protocol: The antitumor activity of compounds was measured in mice bearing transplantable tumors. Survival or tumor size were measured and the results are expressed as the measurement made in the treated group (T) divided by the measurement made in the vehicle treated control group (C). The tumor model used in this assay is Human Amelanotic Melanoma (LOX) (intraperitoneal) in NU/NU BALB/C (nude) mice

Setting [1] is: dose: 12.5 mg/kg/injection, schedule: Q04DX003 (ip), vehicle: saline with Tween-80.
The mark [2] stands for this setting: dose: 50.0 mg/kg/injection, schedule: Q04DX003 (ip), vehicle: saline with Tween-80.
Setting [3] is: dose: 60.0 mg/kg/injection, schedule: Q04DX003 (ip), vehicle: saline.
Where [4] appears, read: dose: 100.0 mg/kg/injection, schedule: Q04DX003 (ip), vehicle: saline with Tween-80.
[5] abbreviates: dose: 100.0 mg/kg/injection, schedule: Q04DX003 (ip), vehicle: saline.
[6] abbreviates: dose: 15.0 mg/kg/injection, schedule: Q04DX003 (ip), vehicle: saline with Tween-80.
Where [7] appears, read: dose: 30.0 mg/kg/injection, schedule: Q04DX003 (ip), vehicle: saline with Tween-80.
The mark [8] stands for this setting: dose: 60.0 mg/kg/injection, schedule: Q04DX003 (ip), vehicle: saline with Tween-80.
The mark [9] stands for this setting: dose: 120.0 mg/kg/injection, schedule: Q04DX003 (ip), vehicle: saline with Tween-80.
[10] abbreviates: dose: 75.0 mg/kg/injection, schedule: Q04DX003 (ip), vehicle: saline with Tween-80.
The mark [11] stands for this setting: dose: 300.0 mg/kg/injection, schedule: Q04DX003 (ip), vehicle: saline with Tween-80.

Molecules are shown by their SMILES. Toxic doses and inconclusive results are not listed.

As for `CC(=O)N(C)c1ccc(Nc2cc(C)[nH]c3ccc4ncnc4c23)cc1`, the T/C under setting [1] was 102 % of control; the T/C (dose: 36.0 mg/kg/injection, schedule: Q04DX003 (ip), vehicle: saline) is 101 % of control; the T/C under setting [2] was 99 % of control; the T/C under setting [3] is 110 % of control; the T/C under setting [4] is 91 % of control; the T/C under setting [5] was 100 % of control. For the same compound, the T/C (dose: 167.0 mg/kg/injection, schedule: Q04DX003 (ip), vehicle: saline) was 94 % of control.
Regarding `C[n+]1c(-c2ccc(NC(=O)c3ccc(C(=O)Nc4ccc(-c5cn6ccccc6[n+]5C)cc4)cc3)cc2)cn2ccccc21`, the T/C under setting [1] is 114 % of control; the T/C (dose: 25.0 mg/kg/injection, schedule: Q04DX003 (ip), vehicle: saline with Tween-80) was 103 % of control; the T/C under setting [2] is 97 % of control.
As to `CN(C)/N=N/c1nc[nH]c1C(N)=O`, the T/C (dose: 100.0 mg/kg/injection, schedule: Q04DX003 (ip), vehicle: Klucel (hydroxypropylcellulose) (HPC)) is 107 % of control.
Consider `N#Cc1c(N)[nH]c2ccc(Sc3ccccc3)cc12`, for which the T/C under setting [6] is 99 % of control; the T/C under setting [7] is 89 % of control; the T/C under setting [8] was 94 % of control; the T/C under setting [9] was 104 % of control; the T/C (dose: 240.0 mg/kg/injection, schedule: Q04DX003 (ip), vehicle: saline with Tween-80) is 124 % of control.
As to `O=c1[nH]cc(F)c(=O)[nH]1`, the T/C is, setting by setting: (dose: 5.0 mg/kg/injection, schedule: Q01DX005 (ip), vehicle: saline) 123 % of control; (dose: 5.0 mg/kg/injection, schedule: Q01DX015 (ip), vehicle: saline) 115 % of control; (dose: 10.0 mg/kg/injection, schedule: Q01DX015 (ip), vehicle: saline) 224 % of control; (dose: 10.0 mg/kg/injection, schedule: Q04DX003 (ip), vehicle: saline) 163 % of control; (dose: 15.0 mg/kg/injection, schedule: Q04DX003 (ip), vehicle: saline) 108 % of control; (dose: 20.0 mg/kg/injection, schedule: Q01DX005 (ip), vehicle: saline) 166 % of control. The T/C (dose: 20.0 mg/kg/injection, schedule: Q01DX015 (ip), vehicle: saline) was 211 % of control; the T/C (dose: 20.0 mg/kg/injection, schedule: Q04DX003 (ip), vehicle: saline) is 191 % of control; the T/C (dose: 30.0 mg/kg/injection, schedule: Q04DX003 (ip), vehicle: saline) is 179 % of control; the T/C (dose: 40.0 mg/kg/injection, schedule: Q01DX005 (ip), vehicle: saline) was 160 % of control; the T/C under setting [3] was 185 % of control.
As to `O=C(O)C1CC(O)CN1` (stereo not given), the T/C was 108 % of control (dose: 75.0 mg/kg/injection, schedule: Q04DX003 (ip), vehicle: saline); 112 % of control (dose: 300.0 mg/kg/injection, schedule: Q04DX003 (ip), vehicle: saline); 107 % of control (dose: 600.0 mg/kg/injection, schedule: Q04DX003 (ip), vehicle: saline); 114 % of control (dose: 1200.0 mg/kg/injection, schedule: Q04DX003 (ip), vehicle: saline).
In the case of `CS(=O)(=O)Nc1ccc(C(=O)CCN2CCCCCC2)cc1`, the T/C is 98 % of control (dose: 37.5 mg/kg/injection, schedule: Q04DX003 (ip), vehicle: saline with Tween-80); 123 % of control under setting [10]; 93 % of control (dose: 150.0 mg/kg/injection, schedule: Q04DX003 (ip), vehicle: saline with Tween-80); 110 % of control under setting [11].
For the compound `Cc1noc2nc(-c3ccccc3)cc(N3CCN(C)CC3)c12`, the T/C was 97 % of control (dose: 25.0 mg/kg/injection, schedule: Q04DX003 (ip), vehicle: other); 97 % of control (dose: 54.0 mg/kg/injection, schedule: Q04DX003 (ip), vehicle: other); 97 % of control (dose: 100.0 mg/kg/injection, schedule: Q04DX003 (ip), vehicle: other); 93 % of control (dose: 200.0 mg/kg/injection, schedule: Q04DX003 (ip), vehicle: other); 98 % of control (dose: 400.0 mg/kg/injection, schedule: Q04DX003 (ip), vehicle: other).
`C=COC(=O)C(Cc1ccccc1)NC(=O)OCc1ccccc1` (stereo not given): the T/C (dose: 7.5 mg/kg/injection, schedule: Q04DX003 (ip), vehicle: saline with Tween-80) was 97 % of control; the T/C under setting [6] is 101 % of control; the T/C under setting [7] was 105 % of control; the T/C under setting [8] was 95 % of control; the T/C under setting [10] is 89 % of control; the T/C under setting [9] was 104 % of control.
In the case of `Cc1ccc2c(c1)n([O-])c1cc(Cl)ccc1[n+]2=O`, the T/C was 111 % of control under setting [2]; 123 % of control under setting [4]; 116 % of control (dose: 172.0 mg/kg/injection, schedule: Q04DX003 (ip), vehicle: saline with Tween-80); 108 % of control (dose: 288.0 mg/kg/injection, schedule: Q04DX003 (ip), vehicle: saline with Tween-80); 111 % of control (dose: 400.0 mg/kg/injection, schedule: Q04DX003 (ip), vehicle: saline with Tween-80); 113 % of control (dose: 480.0 mg/kg/injection, schedule: Q04DX003 (ip), vehicle: saline with Tween-80). The T/C is 107 % of control (dose: 800.0 mg/kg/injection, schedule: Q04DX003 (ip), vehicle: saline with Tween-80) and 110 % of control (dose: 1333.0 mg/kg/injection, schedule: Q04DX003 (ip), vehicle: saline with Tween-80).
With `NC(CNC(=O)CBr)C(=O)O` (stereo not given), the T/C reads like this: (dose: 12.5 mg/kg/injection, schedule: Q04DX003 (ip), vehicle: water) 97 % of control; (dose: 25.0 mg/kg/injection, schedule: Q04DX003 (ip), vehicle: water) 93 % of control; (dose: 50.0 mg/kg/injection, schedule: Q04DX003 (ip), vehicle: water) 98 % of control; (dose: 100.0 mg/kg/injection, schedule: Q04DX003 (ip), vehicle: water) 90 % of control; (dose: 200.0 mg/kg/injection, schedule: Q04DX003 (ip), vehicle: water) 88 % of control.
As for `S=c1sc2ccccc2n1CN1CCOCC1`, the T/C by setting is: under setting [10], 102 % of control; under setting [11], 90 % of control.
On to `COc1cc(C2=NCCc3cc4c(cc32)OCO4)cc(OC)c1OC`, for which the T/C (dose: 18.75 mg/kg/injection, schedule: Q04DX003 (ip), vehicle: saline + alcohol) was 114 % of control; the T/C (dose: 37.5 mg/kg/injection, schedule: Q04DX003 (ip), vehicle: saline + alcohol) was 115 % of control; the T/C (dose: 75.0 mg/kg/injection, schedule: Q04DX003 (ip), vehicle: saline + alcohol) is 110 % of control; the T/C (dose: 150.0 mg/kg/injection, schedule: Q04DX003 (ip), vehicle: saline + alcohol) was 115 % of control.
Turning to `CN1COc2c(n(C)c(=O)[nH]c2=O)C1`, the T/C (dose: 50.0 mg/kg/injection, schedule: Q04DX003 (ip), vehicle: saline) is 96 % of control; the T/C (dose: 50.0 mg/kg/injection, schedule: Q04DX003 (ip), vehicle: suspension in saline) is 102 % of control; the T/C under setting [5] is 91 % of control; the T/C (dose: 100.0 mg/kg/injection, schedule: Q04DX003 (ip), vehicle: suspension in saline) was 104 % of control; the T/C (dose: 200.0 mg/kg/injection, schedule: Q04DX003 (ip), vehicle: saline) is 104 % of control; the T/C (dose: 200.0 mg/kg/injection, schedule: Q04DX003 (ip), vehicle: suspension in saline) is 122 % of control. Besides, the T/C (dose: 400.0 mg/kg/injection, schedule: Q04DX003 (ip), vehicle: saline) was 110 % of control; the T/C (dose: 400.0 mg/kg/injection, schedule: Q04DX003 (ip), vehicle: suspension in saline) is 108 % of control; the T/C (dose: 800.0 mg/kg/injection, schedule: Q04DX003 (ip), vehicle: saline) was 120 % of control; the T/C (dose: 800.0 mg/kg/injection, schedule: Q04DX003 (ip), vehicle: suspension in saline) was 108 % of control.
